Source: patent EP0751957B1, “PEPTIDE FRAGMENTS OF MICROBIAL STRESS PROTEINS AND PHARMACEUTICAL COMPOSITION MADE THEREOF FOR THE TREATMENT AND PREVENTION OF INFLAMMATORY DISEASES” (priority 1994, dated 2004)

Columns and labels:
[1] = tested on: primed lymph node cells (PLNC); experiment: T cell proliferation assay, PLNC from peptide-immunised rats; type: cell-based, Lewis rats; conditions: for CPM PLNC: in vitro peptide 20 µg/ml
Description: Immunisations with synthetic peptides and primed lymph node populations: Rats were immunised with 50 µg of synthetic peptide in PBS/DDA in each hind footpad (i.e. 50 µg/footpad, 100 µg/rat). Ten days later, draining popliteal lymph nodes were removed, disaggregated, washed three times and used as a source of primed lymph node cells (PLNC). In some experiments, PLNC were derived as pooled inguinal and popliteal lymph nodes from AA rats 35-42 days post Mt immunisation.
(§1) T cell proliferation assays: PLNC were cultured in triplicate in 200 µl flat bottom microtitre wells (Costar) at 2 x 10^5 cells per well with or without antigen. In initial experiments PLNC were tested for responsiveness to individual peptides at concentrations of 5 and 20 µg/ml, and Mt, hsp65 and PPD over a range of concentrations. Concanavalin A (2 µg/ml) was used as a positive control for T cell proliferation. Cultures were incubated for 96 h at 37°C in a humidified atmosphere of 5% CO2. Cultures were pulsed for the final 16 h with [^3H] TdR (Amersham, U.K., 1 uCi/well) and TdR uptake measured using a liquid scintillation β counter. Assays using T cell lines were performed as above using 2 x 10^4 line cells per well with irradiated (30 Gy) syngeneic accessory cells (either 3 x 10^5 splenocytes/well or 10^6 thymocytes/well). Results are expressed as mean counts per minute (cpm) of triplicate cultures. In experiments where responses to Ag were low, responses were considered significant if the stimulation index (S.I. = […]) was greater than two and Student's t tests gave p < 0.01.
To determine whether immunisation of rats with synthetic peptides was effective at priming for T cell reactivity to hsp65 epitopes, in vitro proliferative responses following immunisation with 100 µg of peptide each containing individual T cell epitopes were examined. PLNC isolated ten days after immunisation were tested for response to the immunising peptide, overlapping peptides and to hsp65 (Table II). PLNC responses were observed after immunisation with seven of the nine peptides. Responses were not seen after immunisation with peptides 386-400 and 511-525.
(§2) T cell responses by immunisation with hsp65 peptides. Rats were immunised with synthetic peptides containing individual hsp65 epitopes (100 µg peptide/DDA per rat). Ten days later PLNC were isolated and tested for responses to overlapping peptides (20 µg/ml). Peptide-specific T cell lines were generated by bulk in vitro stimulation of PLNC with immunising peptide. Lines were tested for responses to overlapping peptides (10 µg/ml). […] Results are expressed as mean cpm of triplicate cultures. All SEM were less than 20%.

[2] = tested on: Peptide-specific T cell lines; experiment: T cell proliferation assay, peptide-specific T cell lines from peptide-immunised rats; type: cell-based, Lewis rats; conditions: for CPM T Cell Line: in vitro peptide 10 µg/ml
Description: as §1
T cell lines: T cell lines with specificity for mycobacterial hsp65 or peptides were generated by bulk stimulation of either hsp65-PLNC or Mt-PLNC. PLNC were cultured at 5 x 10^6/ml in culture medium supplemented with 2% normal rat serum (NRS) in the presence of 10 µg/ml Ag. After three days viable cells were harvested using a ficoll-isopaque gradient and cultured for a further four days in culture medium + 5% FCS and 5% TCGF (Con A-activated rat spleen supernatant). Seven days after initial stimulation lines were restimulated with irradiated spleen accessory cells and 10 µg/ml Ag in culture medium + NRS. Lines were maintained ir. this seven day restimulation cycle. Short term epitope-specific T cell lines were also generated from rats immunised with synthetic peptides. Peptide-PLNC were cultured as above in the presence of 10 µg/ml peptide.
Bulk stimulation generated T cell lines to eight of the nine peptides tested. These eight lines were tested for specificity after four in vitro restimulations (Table II). All responded to the immunising peptide and, to some extent, to hsp65.
as §2

[3] = target: RT1.B^1 MHC class II molecule (rat (Lewis)); experiment: cell-based or functional assay
[4] = tested on: hsp65-PLNC; experiment: T cell proliferation assay, hsp65-PLNC; type: cell-based, Lewis rats; conditions: PLNC from hsp65-immunised rats; peptides 5 and 20 µg/ml
Description: Immunisations and primed lymph node populations: Rats were immunised with either Mt or hsp65. Mt was suspended at 5 mg/ml in IFA or DDA and 100 µl injected in each hind footpad (i.e. 500 µg/footpad, 1 mg/rat). Hsp65 (1 mg/ml in PBS) was mixed 1:1 with DDA and 100 µl injected (i.e. 50 µg/footpad, 100 µg/rat). Ten to 21 days later, draining popliteal lymph nodes were removed, disaggregated, washed three times and used as a source of primed lymph node cells (PLNC). In control experiments splenocytes and lymph nodes from unimmunised rats and PLNC from rats immunised with IFA or DDA/PBS alone were used.
as §1
Hsp65-PLNC were analysed for responsiveness to a panel of peptides covering the entire sequence of hsp65 (Fig. 3a). […] In terms of magnitude of response, three regions of the molecule (residues 176-190, 211-230 and 221-240) appeared to contain the "dominant" T cell epitopes, while regions 86-100. 251-270, 396-410 and 506-525 contained "subdominant" or minor epitopes.

[5] = tested on: hsp65-specific T cell line; experiment: T cell proliferation assay, hsp65-specific T cell line; type: cell-based, Lewis rats; conditions: short term lines from ten day hsp65-PLNC, seven days after first restimulation
Description: as §1
T cell lines: T cell lines with specificity for mycobacterial hsp65 or peptides were generated by bulk stimulation of either hsp65-PLNC or Mt-PLNC. PLNC were cultured at 5 x 10^6/ml in culture medium supplemented with 2% normal rat serum (NRS) in the presence of 10 µg/ml Ag. […]

[6] = PLNC 10 days after immunisation with peptide 86-100 (100 µg/DDA), mean of triplicates
[7] = T cell line from 86-100-immunised PLNC
[8] = PLNC 10 days after immunisation with peptide 176-190 (100 µg/DDA)
[9] = T cell line from 176-190-immunised PLNC
[10] = PLNC 10 days after immunisation with peptide 211-225 (100 µg/DDA)
[11] = T cell line from 211-225-immunised PLNC
[12] = PLNC 10 days after immunisation with peptide 226-240 (100 µg/DDA)
[13] = T cell line from 226-240-immunised PLNC
[14] = PLNC 10 days after immunisation with peptide 256-270 (100 µg/DDA)
[15] = T cell line from 256-270-immunised PLNC
[16] = PLNC 10 days after immunisation with peptide 396-410 (100 µg/DDA)
[17] = T cell line from 396-410-immunised PLNC
[18] = PLNC 10 days after immunisation with peptide 446-460 (100 µg/DDA)
[19] = T cell line from 446-460-immunised PLNC
[20] = PLNC 10 days after immunisation with peptide 511-525 (100 µg/DDA)
[21] = T cell line from 511-525-immunised PLNC

81-95: synthetic 15mer, residues 81-95 of mycobacterial hsp65 (DDVAGDGTTTATVLA; UniProt P9WPE7 81-95, looked up, fragment)
CPM PLNC [1, 6]: 15296 cpm | response of T cell line generated following immunisation with the 86-100 peptide [2]: responded | CPM T Cell Line [2, 7]: 15785 cpm

91-105: synthetic 15mer, residues 91-105 of mycobacterial hsp65
CPM PLNC [1, 6]: 1999 cpm | response of T cell line generated following immunisation with the 86-100 peptide [2]: responded | CPM T Cell Line [2, 7]: 18444 cpm

171-185: synthetic 15mer, residues 171-185 of mycobacterial hsp65
CPM PLNC [1, 8]: 3082 cpm | CPM T Cell Line [2, 9]: 1640 cpm

181-195: synthetic 15mer, residues 181-195 of mycobacterial hsp65
CPM PLNC [1, 8]: 1916 cpm | CPM T Cell Line [2, 9]: 1653 cpm

206-220: synthetic 15mer, residues 206-220 of mycobacterial hsp65
CPM PLNC [1, 10]: 645 cpm | CPM T Cell Line [2, 11]: 988 cpm

216-230: synthetic 15mer, residues 216-230 of mycobacterial hsp65
CPM PLNC [1, 10]: 11117 cpm | CPM T Cell Line [2, 11]: 102341 cpm

221-235: synthetic 15mer, residues 221-235 of mycobacterial hsp65
CPM PLNC [1, 12]: 7381 cpm | CPM T Cell Line [2, 13]: 100306 cpm

231-245: synthetic 15mer, residues 231-245 of mycobacterial hsp65
CPM PLNC [1, 12]: 1655 cpm | CPM T Cell Line [2, 13]: 862 cpm

251-265: synthetic 15mer, residues 251-265 of mycobacterial hsp65
CPM PLNC [1, 14]: 6391 cpm | CPM T Cell Line [2, 15]: 66063 cpm | response of the line generated against M.256-270 (line P.m52) ([2]; irradiated syngeneic spleen APC): responded

261-275: synthetic 15mer, residues 261-275 of mycobacterial hsp65
CPM PLNC [1, 14]: 2553 cpm | CPM T Cell Line [2, 15]: 646 cpm

391-405: synthetic 15mer, residues 391-405 of mycobacterial hsp65
CPM PLNC [1, 16]: 2280 cpm | CPM T Cell Line [2, 17]: 39335 cpm

401-415: synthetic 15mer, residues 401-415 of mycobacterial hsp65 (AKAAVEEGIVAGGGV; UniProt P9WPE7 401-415, looked up, fragment)
CPM PLNC [1, 16]: 3211 cpm | CPM T Cell Line [2, 17]: 2011 cpm

441-455: synthetic 15mer, residues 441-455 of mycobacterial hsp65
CPM PLNC [1, 18]: 4715 cpm | CPM T Cell Line [2, 19]: 17805 cpm

451-465: synthetic 15mer, residues 451-465 of mycobacterial hsp65
CPM PLNC [1, 18]: 2130 cpm | CPM T Cell Line [2, 19]: 1283 cpm

506-520: synthetic 15mer, residues 506-520 of mycobacterial hsp65
CPM PLNC [1, 20]: 2754 cpm | CPM T Cell Line [2, 21]: 61293 cpm

516-530: synthetic 15mer, residues 516-530 of mycobacterial hsp65
CPM PLNC [1, 20]: 2821 cpm | CPM T Cell Line [2, 21]: 1231 cpm

mycobacterial hsp65 peptide 86-100
reduction of peptide (1 µg/ml) induced T cell line proliferation by anti-RT1.B mAb 0X6 (10 µg/ml) [3]: > 70%

mycobacterial hsp65 peptide 176-190
reduction of peptide (1 µg/ml) induced T cell line proliferation by anti-RT1.B mAb 0X6 (10 µg/ml) [3]: > 70%

mycobacterial hsp65 peptide 211-225
reduction of peptide (1 µg/ml) induced T cell line proliferation by anti-RT1.B mAb 0X6 (10 µg/ml) [3]: > 70%

mycobacterial hsp65 peptide 226-240
reduction of peptide (1 µg/ml) induced T cell line proliferation by anti-RT1.B mAb 0X6 (10 µg/ml) [3]: > 70%

mycobacterial hsp65 peptide 256-270
reduction of peptide (1 µg/ml) induced T cell line proliferation by anti-RT1.B mAb 0X6 (10 µg/ml) [3]: > 70%

mycobacterial hsp65 peptide 396-410
reduction of peptide (1 µg/ml) induced T cell line proliferation by anti-RT1.B mAb 0X6 (10 µg/ml) [3]: > 70%

mycobacterial hsp65 peptide 446-460
reduction of peptide (1 µg/ml) induced T cell line proliferation by anti-RT1.B mAb 0X6 (10 µg/ml) [3]: > 70%

mycobacterial hsp65 peptide 511-525
reduction of peptide (1 µg/ml) induced T cell line proliferation by anti-RT1.B mAb 0X6 (10 µg/ml) [3]: > 70%

peptide 180-188: synthetic 9mer, minimal AA-associated epitope 180-188 of mycobacterial hsp65 (TFGLQLELT; UniProt P9WPE7 180-188, looked up, fragment) [reference compound]
hsp65-PLNC proliferative response to peptide [4]: induce responses, but at a lower level | CPM PLNC [1, 8]: 7859 cpm | CPM T Cell Line [2, 9]: 23275 cpm

peptide 386-400: synthetic 15mer, residues 386-400 of mycobacterial hsp65
hsp65-PLNC proliferative response to peptide [4]: failed to stimulate | PLNC responses after immunisation with the peptide ([1]; 100 µg peptide, PLNC isolated ten days after immunisation): not seen | hsp65-specific T cell line response to peptide [5]: did stimulate
